# Tests used:
# Format in all cases: biochemical
# Details in all cases: result in words
# PPWD1 = target: T1, PPWD1 (Homo sapiens, UniProt Q96BP3); experiment: chymotrypsin coupled PPIase assay, PPWD1 inhibition
# T1 sequence (Q96BP3 1-646): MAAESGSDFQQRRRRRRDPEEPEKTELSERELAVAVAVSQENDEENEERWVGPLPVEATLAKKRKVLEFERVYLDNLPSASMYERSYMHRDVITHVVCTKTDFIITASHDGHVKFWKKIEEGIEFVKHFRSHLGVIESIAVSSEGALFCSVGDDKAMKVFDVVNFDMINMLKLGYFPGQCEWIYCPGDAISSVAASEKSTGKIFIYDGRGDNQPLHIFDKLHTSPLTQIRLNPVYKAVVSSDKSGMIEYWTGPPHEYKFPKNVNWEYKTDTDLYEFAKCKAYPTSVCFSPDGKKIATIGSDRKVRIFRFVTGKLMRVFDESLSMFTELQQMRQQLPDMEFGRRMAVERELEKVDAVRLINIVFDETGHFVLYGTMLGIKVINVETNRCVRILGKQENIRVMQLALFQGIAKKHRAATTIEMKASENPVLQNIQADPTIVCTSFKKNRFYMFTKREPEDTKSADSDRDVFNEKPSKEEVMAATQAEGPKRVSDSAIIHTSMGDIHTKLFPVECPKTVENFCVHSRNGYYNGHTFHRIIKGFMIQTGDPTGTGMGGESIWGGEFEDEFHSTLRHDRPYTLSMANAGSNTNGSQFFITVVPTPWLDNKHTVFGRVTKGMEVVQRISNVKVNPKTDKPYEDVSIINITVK
# Procedure: (§1) Following the synthesis of the indicated library members, in vitro inhibition (IC50) assays of these hits were conducted to obtain IC50 inhibitory data. For the IC50 assays, a chymotrypsin coupled PPIase assay using Suc-AAPF-AMC as the peptide substrate was used, whereby isomerization of a peptide substrate Suc-AAPF-AMC from the cis to trans conformation allowed for proteolysis via excess a-chymotrypsin, releasing the C-terminal coumarin fluorophore. […] Other non-inhibitor library members were also checked for binding via SPR, but produced the same profile as the prolyl isomerase assay.
# (§2) Subsequently, to determine if the compounds could both access the S2 pocket and display CypD specificity, JOMBtrans and compound 49 were screened against the 10 other cyclophilins with reported prolyl isomerase activity. […] Co-crystal structures of JOMBtrans and 49 were solved with CypD. […] Three further H-bonds with the macrocycle's backbone and CypD were observed along with a cation-n interaction. […] The benzyl group on the piperidine ring altered the conformation of the macrocycle to open up two new hydrogen bonding interactions with CypD. […] This improvement in specificity compared to JOMBtrans signified that more CypD specific compounds can be garnered by derivatization into the S2 pocket.
# CypH = CypH (Homo sapiens, UniProt O43447); experiment: chymotrypsin coupled PPIase assay, CypH inhibition
# Procedure: as §1, §2
# [1] = tested on: 10 other cyclophilins with reported prolyl isomerase activity; experiment: cyclophilin specificity screen: CypD against the other cyclophilins
# Excerpt: The selectivity of a compound described herein in inhibiting the activity of a first cyclophilin (e.g., CypD) over a second cyclophilin may be measured by the quotient of the IC50 value of the compound in inhibiting the activity of the second cyclophilin over the IC50 value of the compound in inhibiting the activity of the first cyclophilin. The selectivity of a compound described herein in modulating the activity of a first cyclophilin over a second cyclophilin may also be measured by the quotient of the Kd value of an adduct of the compound and the second cyclophilin over the Kd value of an adduct of the compound and the first cyclophilin (e.g., CypD). […] In certain embodiments, selectivity for inhibiting a first cyclophilin over other cyclophilins is measured by Surface Plasmon Resonance (SPR) assays as disclosed in the Examples.
# Following the synthesis of the indicated library members, in vitro inhibition (IC50) assays of these hits were conducted to obtain IC50 inhibitory data. For the IC50 assays, a chymotrypsin coupled PPIase assay using Suc-AAPF-AMC as the peptide substrate was used, whereby isomerization of a peptide substrate Suc-AAPF-AMC from the cis to trans conformation allowed for proteolysis via excess a-chymotrypsin, releasing the C-terminal coumarin fluorophore.
# Subsequently, to determine if the compounds could both access the S2 pocket and display CypD specificity, JOMBtrans and compound 49 were screened against the 10 other cyclophilins with reported prolyl isomerase activity. […] Co-crystal structures of JOMBtrans and 49 were solved with CypD.
# CypH, sequence (O43447 whole entry): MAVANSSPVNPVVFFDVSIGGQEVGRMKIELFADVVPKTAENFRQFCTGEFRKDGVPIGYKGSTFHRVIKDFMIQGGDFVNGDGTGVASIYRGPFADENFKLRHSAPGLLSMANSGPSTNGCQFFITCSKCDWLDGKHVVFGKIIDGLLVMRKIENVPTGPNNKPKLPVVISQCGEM
smiles,measurement,setting,value
NCCOCCNC(=O)[C@@H]1CCNC(=O)/C=C/C(=O)N2CCC[C@H](C2)C(=O)N[C@@H](Cc2ccc(C(=O)c3ccccc3)cc2)C(=O)NCc2ccccc2CC(=O)N1 [compound 27],inhibition of PPWD1,PPWD1,Almost complete ablation of inhibition profiles
same,inhibition of CypH,CypH,Almost complete ablation of inhibition profiles
same,specificity / selectivity profile for CypD (in words),[1],improvement in specificity for CypD

# From patent US20230117680A1, “CYCLOPHILIN D INHIBITORS AND USES THEREOF” (The Broad Institute, Inc., priority 2019, published 2023)
